We go through 29 molecules from US8759535B2, “Substituted fused imidazole derivatives, pharmaceutical compositions, and methods of use thereof” (High Point Pharmaceuticals, LLC, priority 2010, dated 2014).

The test system of the assay is HMOX1. As to the kind of experiment: HMOX1 Protein Assay (immunostaining of HO-1 in NHLF cells, GE InCell 1000). Type of assay: cell-based. The following applies: Homo sapiens, fold change above DMSO treated cells, 16 h; for fold induction at 5 µM: 5 μM compound; for fold induction at 3 µM: 3 μM compound (asterisk). The essentials:
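Fold induction of HO-1 over vehicle, normally at 5 μM compound (asterisk marks 3 μM), in 0.8% DMSO medium. Normal human lung fibroblasts were treated 16 h, then paraformaldehyde-fixed, anti-HO-1/Alexa 488 stained with Hoechst, and read by high-content imaging.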

Molecules are shown by their SMILES. Structures can show the parent of a compound that is named as a salt.

As to `Cn1c(Nc2nc3ccc(Cl)cc3s2)nc2cc(C(=O)NCCN3CCCC(F)(F)C3)ccc21` [Example 336, 2-(6-Chloro-benzothiazol-2-ylamino)-1-methyl-1H-benzoimidazole-5-carboxylic acid [2-(3,3-difluoro-piperidin-1-yl)-ethyl]-amide], the fold induction at 5 µM was 16.1.
Still for that read-out and setting: as for `CCOCCNC(=O)c1ccc2c(c1)nc(Nc1nc3ccc(OC(F)(F)F)cc3s1)n2CC` [Example 157, 1-Ethyl-2-(6-trifluoromethoxy-benzothiazol-2-ylamino)-1H-benzoimidazole-5-carboxylic acid (2-ethoxy-ethyl)-amide], the figure is 22.1.
The molecule `Cn1c(Nc2nc3ccc(OC(F)(F)F)cc3s2)nc2cc(C(=O)NC3CCCNC3)ccc21` (centres unmarked) [Example 95, 1-Methyl-2-(6-trifluoromethoxy-benzothiazol-2-ylamino)-1H-benzoimidazole-5-carboxylic acid piperidin-3-ylamide hydrochloride] registered a fold induction at 5 µM of 11.2.
The same measure, in the same setting: as for `COCCNC(=O)c1ccc2c(c1)nc(Nc1nc3cc(F)c(F)cc3s1)n2C` [Example 37, 2-(5,6-Difluoro-benzothiazol-2-ylamino)-1-methyl-1H-benzoimidazole-5-carboxylic acid (2-methoxy-ethyl)-amide], the figure is 16.4.
`C[C@@H](NC(=O)c1ccc2c(c1)nc(Nc1nc3ccc(Cl)cc3s1)n2C)C(=O)N(C)C` [Example 467, 2-(6-Chloro-benzothiazol-2-ylamino)-1-methyl-1H-benzoimidazole-5-carboxylic acid ((R)-1-dimethylcarbamoyl-ethyl)-amide] showed a fold induction at 3 µM of 22.3.
In turn, `CC(O)CNC(=O)c1cc2nc(Nc3nc4ccc(OC(F)(F)F)cc4s3)n(C)c2cc1F` (centres unmarked) [Example 60, 6-Fluoro-1-methyl-2-(6-trifluoromethoxy-benzothiazol-2-ylamino)-1H-benzoimidazole-5-carboxylic acid (2-hydroxy-propyl)-amide] had a fold induction at 5 µM of 39.8.
On to `Cn1c(Nc2nc3ccc(OC(F)(F)F)cc3s2)nc2cc(C(=O)NCC(=O)N3CCC(C#N)CC3)ccc21` [Example 450, 1-Methyl-2-(6-trifluoromethoxy-benzothiazol-2-ylamino)-1H-benzoimidazole-5-carboxylic acid [2-(4-cyano-piperidin-1-yl)-2-oxo-ethyl]-amide], for which the fold induction at 3 µM turned out to be 51.
As to `Cn1c(Nc2nc3ccc(OC(F)(F)F)cc3s2)nc2cc(C(=O)NCCOCC3CCCO3)ccc21` (centres unmarked) [Example 53, 1-Methyl-2-(6-trifluoromethoxy-benzothiazol-2-ylamino)-1H-benzoimidazole-5-carboxylic acid [2-(tetrahydro-furan-2-ylmethoxy)-ethyl]-amide], the fold induction at 5 µM turned out to be 20.1.
Same read-out and setting: as for `Cn1c(Nc2nc3ccc(OC(F)(F)F)cc3s2)nc2cc(C(=O)NCCNC(=O)CO)ccc21` [Example 325, 1-Methyl-2-(6-trifluoromethoxy-benzothiazol-2-ylamino)-1H-benzoimidazole-5-carboxylic acid [2-(2-hydroxy-acetylamino)-ethyl]-amide], the figure is 32.4; as for `Cn1c(Nc2nc3ccc(OC(F)(F)F)cc3s2)nc2cc(S(C)(=O)=O)ccc21` [Example 201, (5-Methanesulfonyl-1-methyl-1H-benzoimidazol-2-yl)-(6-trifluoromethoxy-benzothiazol-2-yl)-amine], 26.5; as for `Cn1c(Nc2nc3ccc(OC(F)(F)F)cc3s2)nc2cc(C(=O)NCC(=O)O)ccc21` [Example 83, {[1-Methyl-2-(6-trifluoromethoxy-benzothiazol-2-ylamino)-1H-benzoimidazole-5-carbonyl]-amino}-acetic acid], 1.25.
On the same count and under the same terms, as for `Cn1c(Nc2nc3ccc(OC(F)(F)F)cc3s2)nc2cc(C(=O)NCCCn3cccn3)ccc21` [Example 11, 1-Methyl-2-(6-trifluoromethoxy-benzothiazol-2-ylamino)-1H-benzoimidazole-5-carboxylic acid (3-pyrazol-1-yl-propyl)-amide], the figure is 25; as for `COCCn1c(Nc2nc3ccc(OC(F)(F)F)cc3s2)nc2cc(C(=O)NCC(=O)N3CCN(C)CC3)ccc21` [Example 189, 1-(2-Methoxy-ethyl)-2-(6-trifluoromethoxy-benzothiazol-2-ylamino)-1H-benzoimidazole-5-carboxylic acid [2-(4-methyl-piperazin-1-yl)-2-oxo-ethyl]-amide], 24.6; as for `CC(C)n1c(Nc2nc3ccc(OC(F)(F)F)cc3s2)nc2cc(C(=O)O)ccc21` [Example 159, 1-Isopropyl-2-(6-trifluoromethoxy-benzothiazol-2-ylamino)-1H-benzoimidazole-5-carboxylic acid], 26.7.
On the same count and under the same terms, as for `CN(C)[C@@H]1CCN(C(=O)CNC(=O)c2ccc3c(c2)nc(Nc2nc4ccc(Cl)cc4s2)n3C)C1` [Example 417, 2-(6-Chloro-benzothiazol-2-ylamino)-1-methyl-1H-benzoimidazole-5-carboxylic acid [2-((R)-3-dimethylamino-pyrrolidin-1-yl)-2-oxo-ethyl]-amide], the figure is 62.8.
On to `CN1CCN(CCCNC(=O)c2ccc3c(c2)nc(Nc2nc4ccc(Cl)cc4s2)n3C)CC1` [Example 356, 2-(6-Chloro-benzothiazol-2-ylamino)-1-methyl-1H-benzoimidazole-5-carboxylic acid [3-(4-methyl-piperazin-1-yl)-propyl]-amide], for which the fold induction at 3 µM came out at 19.
Still for that read-out and setting: as for `Cn1c(Nc2nc3ccc(C(F)(F)F)cc3s2)nc2cc(C(=O)NC[C@H]3CC[C@H](O)CC3)ccc21` [Example 234, 1-Methyl-2-(6-trifluoromethyl-benzothiazol-2-ylamino)-1H-benzoimidazole-5-carboxylic acid (trans-4-hydroxy-cyclohexylmethyl)-amide], the figure is 30.9.
In turn, `Cn1c(Nc2nc3ccc(OC(F)(F)F)cc3s2)nc2cc(C(=O)NCCCO)ccc21` [Example 13, 1-Methyl-2-(6-trifluoromethoxy-benzothiazol-2-ylamino)-1H-benzoimidazole-5-carboxylic acid (3-hydroxy-propyl)-amide] displayed a fold induction at 5 µM of 20.1.
The same measure, in the same setting: as for `Cn1c(Nc2nc3ccc(OC(F)(F)F)cc3s2)nc2cc(C(=O)NC[C@H](O)CO)ccc21` [Example 280, 1-Methyl-2-(6-trifluoromethoxy-benzothiazol-2-ylamino)-1H-benzoimidazole-5-carboxylic acid ((S)-2,3-dihydroxy-propyl)-amide], the figure is 38.8.
For the molecule `Cn1c(Nc2nc3ccc(OC(F)(F)F)cc3s2)nc2cc(C(=O)NCc3ccco3)ccc21` [Example 48, 1-Methyl-2-(6-trifluoromethoxy-benzothiazol-2-ylamino)-1H-benzoimidazole-5-carboxylic acid (furan-2-ylmethyl)-amide], the fold induction at 5 µM was 15.8.
Same read-out and setting: as for `CN(C(=O)CNC(=O)c1ccc2c(c1)nc(Nc1nc3ccc(Cl)cc3s1)n2C)C1CCNC1` (centres unmarked) [Example 394, 2-(6-Chloro-benzothiazol-2-ylamino)-1-methyl-1H-benzoimidazole-5-carboxylic acid [(methyl-pyrrolidin-3-yl-carbamoyl)-methyl]-amide hydrochloride], the figure is 37.6.
Still for that read-out and setting: as for `CNC(=O)c1ccc2c(c1)nc(Nc1nc3ccc(Cl)cc3s1)n2C` [Example 88, 2-(6-Chloro-benzothiazol-2-ylamino)-1-methyl-1H-benzoimidazole-5-carboxylic acid methylamide], the figure is 13; as for `Cn1c(Nc2nc3ccc(OC(F)(F)F)cc3s2)nc2cc(C(=O)NCCF)ccc21` [Example 9, 1-Methyl-2-(6-trifluoromethoxy-benzothiazol-2-ylamino)-1H-benzoimidazole-5-carboxylic acid (2-fluoro-ethyl)-amide], 11.2.
The molecule `Cn1c(Nc2nc3ccc(Cl)cc3s2)nc2cc(C(=O)NCC(=O)N3CCC[C@H](O)C3)ccc21` [Example 433, 2-(6-Chloro-benzothiazol-2-ylamino)-1-methyl-1H-benzoimidazole-5-carboxylic acid [2-((S)-3-hydroxy-piperidin-1-yl)-2-oxo-ethyl]-amide] had a fold induction at 3 µM of 29.
As to `Cn1c(Nc2nc3ccc(OC(F)(F)F)cc3s2)nc2cc(C(=O)NN3CCOCC3)ccc21` [Example 15, 1-Methyl-2-(6-trifluoromethoxy-benzothiazol-2-ylamino)-1H-benzoimidazole-5-carboxylic acid morpholin-4-ylamide], the fold induction at 5 µM came to 22.8.
On the same count and under the same terms, as for `Cn1c(Nc2nc3ccc(OC(F)(F)F)cc3s2)nc2cc(C(=O)NCC(=O)N3CCNCC3)ccc21` [Example 152, 1-Methyl-2-(6-trifluoromethoxy-benzothiazol-2-ylamino)-1H-benzimidazole-5-carboxylic acid (2-oxo-2-piperazin-1-yl-ethyl)-amide hydrochloride], the figure is 15.
On the same count and under the same terms, as for `CCNC(=O)c1ccc2c(c1)nc(Nc1nc3ccc(OC(F)(F)F)cc3s1)n2CC(C)C` [Example 165, 1-Isobutyl-2-(6-trifluoromethoxy-benzothiazol-2-ylamino)-1H-benzoimidazole-5-carboxylic acid ethylamide], the figure is 17.9; as for `CN(C)C(=O)[C@H]1CC[C@H](NC(=O)c2ccc3c(c2)nc(Nc2nc4ccc(Cl)cc4s2)n3C)CC1` [Example 379, 2-(6-Chloro-benzothiazol-2-ylamino)-1-methyl-1H-benzoimidazole-5-carboxylic acid (4-trans-dimethylcarbamoyl-cyclohexyl)-amide], 21.7; as for `CNCC1CCN(C(=O)CNC(=O)c2ccc3c(c2)nc(Nc2nc4ccc(Cl)cc4s2)n3C)CC1` [Example 457, 2-(6-Chloro-benzothiazol-2-ylamino)-1-methyl-1H-benzoimidazole-5-carboxylic acid [2-(4-methylaminomethyl-piperidin-1-yl)-2-oxo-ethyl]-amide hydrochloride], 39.9.
